Reference: patent US10676465B2, “GLP-1 receptor agonists and uses thereof” (Pfizer Inc., priority 2018, dated 2020)
Like-named read-outs stand apart in the source and are kept apart here.

How the values were obtained:
human GLP-1R [1] = molecular target: human GLP-1R (Homo sapiens, UniProt P43220, G168S); assay: CHO GLP-1R Clone H6 - Assay 1 (HTRF cAMP agonist assay); type: cell-based; conditions: for EC50: CHO GLP-1R Clone H6, cAMP HTRF, geometric mean; for Emax / Assay 1 Emax (%): CHO GLP-1R Clone H6, arithmetic mean, relative to saturating GLP-1 (1 μM)
human GLP-1R [2] = molecular target: human GLP-1R (Homo sapiens (Human), UniProt P43220, L260F); assay: CHO GLP-1R Clone C6 - Assay 2 (HTRF cAMP agonist assay, low receptor density); conditions: for Emax: read-out: Assay 2 Emax (%), CHO GLP-1R Clone C6 (low receptor density)
[3] = read-out: Assay 2 EC50, CHO GLP-1R Clone C6 (low receptor density), cAMP HTRF, geometric mean
[4] = arithmetic mean, relative to saturating GLP-1 (1 μM)
[5] = Assay 2 EC50 (nM), CHO GLP-1R Clone C6 (low receptor density), cAMP HTRF, geometric mean

Sequence of human GLP-1R (Homo sapiens (Human), UniProt P43220, L260F) (P43220 24-463 L260F): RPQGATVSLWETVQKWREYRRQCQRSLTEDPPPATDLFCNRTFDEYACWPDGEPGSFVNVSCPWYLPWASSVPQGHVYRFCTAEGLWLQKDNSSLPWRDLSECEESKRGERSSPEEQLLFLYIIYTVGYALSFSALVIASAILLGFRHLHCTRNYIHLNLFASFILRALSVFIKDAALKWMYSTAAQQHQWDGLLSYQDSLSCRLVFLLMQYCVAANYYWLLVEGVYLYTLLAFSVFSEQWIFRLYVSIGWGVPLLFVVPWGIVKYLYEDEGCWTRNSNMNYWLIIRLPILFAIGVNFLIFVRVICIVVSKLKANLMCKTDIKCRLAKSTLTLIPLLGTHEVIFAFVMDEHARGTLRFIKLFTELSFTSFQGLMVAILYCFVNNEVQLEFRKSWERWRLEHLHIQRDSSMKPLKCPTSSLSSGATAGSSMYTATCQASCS
Sequence of human GLP-1R (Homo sapiens, UniProt P43220, G168S) (P43220 24-463 G168S limits assumed): as the sequence (P43220 24-463 L260F) above, with G145S, F237L counted along it

| EC50 (human GLP-1R [1]) [µM] | Emax (human GLP-1R [1]) [%] | EC50 (human GLP-1R [2]; [3]) [nM] | Emax (human GLP-1R [2]; [4]) [%] | Assay 1 Emax (%) (human GLP-1R [1]) | Assay 2 Emax (%) (human GLP-1R [2]; CHO GLP-1R Clone C6 (low receptor density), arithmetic mean, relative to saturating GLP-1 (1 μM)) | EC50 (human GLP-1R [2]; [5]) [nM] | EC50 (human GLP-1R [2]; EC50 in Assay 2, CHO GLP-1R Clone C6, cAMP, geometric mean of replicates) [nM] | SMILES |
| --- | --- | --- | --- | --- | --- | --- | --- | --- |
| 0.0028 |  | 5.4 |  | 99 | 91 |  |  | CC1(c2ccc(C#N)cc2F)Oc2cccc(C3CCN(Cc4nc5ccc(C(=O)O)cc5n4Cc4ncco4)CC3)c2O1.N (stereo not shown) [Example 99, ammonium 2-({4-[2-(4-cyano-2-fluorophenyl)-2-methyl-1,3-benzodioxol-4-yl]piperidin-1-yl}methyl)-1-(1,3-oxazol-2-ylmethyl)-1H-benzimidazole-6-carboxylate] |
| 0.0052 | 91 | 66 | 96 |  |  |  |  | Cn1cc(Cn2c(CN3CCC(c4cccc5c4OC(C)(c4ccc(Cl)cc4F)O5)CC3)nc3ccc(C(=O)O)cc32)nn1 (stereo not shown) [Example 63, 2-({4-[2-(4-chloro-2-fluorophenyl)-2-methyl-1,3-benzodioxol-4-yl]piperidin-1-yl}methyl)-1-[(1-methyl-1H-1,2,3-triazol-4-yl)methyl]-1H-benzimidazole-6-carboxylic acid] |
| 0.0042 |  | 72 | 83 | 90 |  |  |  | COCCn1c(CN2CCC(c3cccc4c3OC(C)(c3ccc(Cl)cn3)O4)CC2)nc2ccc(C(=O)O)cc21.N (stereo not shown) [Example 92, ammonium 2-({4-[2-(5-chloropyridin-2-yl)-2-methyl-1,3-benzodioxol-4-yl]piperidin-1-yl}methyl)-1-(2-methoxyethyl)-1H-benzimidazole-6-carboxylate] |
| > 6.5 | 84 | > 20000 |  |  |  |  |  | COCCn1c(CN2CCC(c3cccc4c3OC(C)(c3ccc(C#N)cn3)O4)CC2)nc2ccc(C(=O)O)cc21 (stereo not shown) [Example 93, ammonium 2-({4-[2-(5-cyanopyridin-2-yl)-2-methyl-1,3-benzodioxol-4-yl]piperidin-1-yl}methyl)-1-(2-methoxyethyl)-1H-benzimidazole-6-carboxylate] |
| 0.0011 | 87 | 6.9 | 96 |  |  |  |  | CC1(c2ccc(Cl)cc2F)Oc2cccc(C3CCN(Cc4nc5ccc(C(=O)O)cc5n4Cc4ncco4)CC3)c2O1 (stereo not shown) [Example 80, 2-({4-[2-(4-chloro-2-fluorophenyl)-2-methyl-1,3-benzodioxol-4-yl]piperidin-1-yl}methyl)-1-(1,3-oxazol-2-ylmethyl)-1H-benzimidazole-6-carboxylic acid] |
| 0.024 | 91 | 410 | 100 |  |  |  |  | COCCn1c(CN2CCC(c3cccc4c3OC(C)(c3ccccc3Cl)O4)CC2)nc2ccc(C(=O)O)cc21 (stereo not shown) [Example 86, 2-({4-[2-(2-chlorophenyl)-2-methyl-1,3-benzodioxol-4-yl]piperidin-1-yl}methyl)-1-(2-methoxyethyl)-1H-benzimidazole-6-carboxylic acid] |

The remaining lines, values behind:

| SMILES | EC50 (human GLP-1R [1]) [µM] | Emax (human GLP-1R [1]) [%] | EC50 (human GLP-1R [2]; [3]) [nM] | Emax (human GLP-1R [2]; [4]) [%] | Assay 1 Emax (%) (human GLP-1R [1]) | Assay 2 Emax (%) (human GLP-1R [2]; CHO GLP-1R Clone C6 (low receptor density), arithmetic mean, relative to saturating GLP-1 (1 μM)) | EC50 (human GLP-1R [2]; [5]) [nM] | EC50 (human GLP-1R [2]; EC50 in Assay 2, CHO GLP-1R Clone C6, cAMP, geometric mean of replicates) [nM] |
| --- | --- | --- | --- | --- | --- | --- | --- | --- |
| COCCn1c(CN2CCC(c3cccc4c3OC(C)(c3cccc(F)c3)O4)CC2)nc2ccc(C(=O)O)cc21 (stereo not shown) [Example 31, 2-({4-[2-(3-fluorophenyl)-2-methyl-1,3-benzodioxol-4-yl]piperidin-1-yl}methyl)-1-(2-methoxyethyl)-1H-benzimidazole-6-carboxylic acid] | 0.19 | 88 | 1900 | 65 |  |  |  |  |
| COCCn1c(C2CC23CCN(c2cccc4c2OC(C)(c2ccc(Cl)cc2F)O4)CC3)nc2ccc(C(=O)O)cc21 (single isomer, unassigned) [Example 25, 2-{6-[2-(4-chloro-2-fluorophenyl)-2-methyl-1,3-benzodioxol-4-yl]-6-azaspiro[2.5]oct-1-yl}-1-(2-methoxyethyl)-1H-benzimidazole-6-carboxylic acid] | > 20 |  |  |  |  |  | > 20000 |  |
| COCCn1c(CN2CCN(c3cccc4c3OC(C)(c3ccc(Cl)cc3F)O4)CC2)nc2ccc(C(=O)O)cc21 (stereo not shown) [Example 19, 2-({4-[2-(4-chloro-2-fluorophenyl)-2-methyl-1,3-benzodioxol-4-yl]piperazin-1-yl}methyl)-1-(2-methoxyethyl)-1H-benzimidazole-6-carboxylic acid] | 0.0012 | 87 | 25 | 100 |  |  |  |  |
| C[C@]1(c2ccc(Cl)cc2F)Oc2cccc(C3CCN(Cc4nc5ccc(C(=O)O)cc5n4C[C@@H]4CCO4)CC3)c2O1 [Example 7, Ammonium 2-({4-[(2S)-2-(4-chloro-2-fluorophenyl)-2-methyl-1,3-benzodioxol-4-yl]piperidin-1-yl}methyl)-1-[(2S)-oxetan-2-ylmethyl]-1H-benzimidazole-6-carboxylate] | 0.00026 | 98 |  | 93 |  |  | 3.1 | 2.9 |
| CC1(c2ccc(Cl)cc2F)Oc2cccc(C3CCN(Cc4nc5ccc(C(=O)O)cc5n4Cc4ccccn4)CC3)c2O1 (stereo not shown) [Example 45, 2-({4-[2-(4-chloro-2-fluorophenyl)-2-methyl-1,3-benzodioxol-4-yl]piperidin-1-yl}methyl)-1-(pyridin-2-ylmethyl)-1H-benzimidazole-6-carboxylic acid] | 0.0099 | 81 | 220 | 79 |  |  |  |  |
| CN(C)CCn1c(CN2CCC(c3cccc4c3OC(C)(c3ccc(Cl)cc3F)O4)CC2)nc2ccc(C(=O)O)cc21 (stereo not shown) [Example 12, 2-({4-[2-(4-Chloro-2-fluorophenyl)-2-methyl-1,3-benzodioxol-4-yl]piperidin-1-yl}methyl)-1-[2-(dimethylamino)ethyl]-1H-benzimidazole-6-carboxylic Acid] | 0.029 | 83 |  | 92 |  |  | 690 |  |
| Cn1c(CN2CCC(c3cccc4c3O[C@@](C)(c3ccc(Cl)cc3F)O4)CC2)nc2ccc(C(=O)O)cc21 [Example 14, 2-({4-[(2S)-2-(4-Chloro-2-fluorophenyl)-2-methyl-1,3-benzodioxol-4-yl]piperidin-1-yl}methyl)-1-methyl-1H-benzimidazole-6-carboxylic Acid] | 0.007 | 95 | 79 | 85 |  |  |  |  |
| CC1(c2ccc(Cl)cn2)Oc2cccc(C3CCN(Cc4nc5ccc(C(=O)O)cc5n4C[C@@H]4CCO4)CC3)c2O1 (single isomer, unassigned) [Example 10] |  | 99 |  | 96 |  |  |  |  |
| COCCn1c(CN2CCN(c3cccc4c3OC(c3ccc(Cl)cc3F)O4)CC2)nc2ccc(C(=O)O)cc21 (single isomer, unassigned) [Example 1, 2-({4-[2-(4-Chloro-2-fluorophenyl)-1,3-benzodioxol-4-yl]piperazin-1-yl}methyl)-1-(2-methoxyethyl)-1H-benzimidazole-6-carboxylic Acid] | 0.88 | 99 |  |  |  |  | > 20000 |  |
| CC1(c2ccc(Cl)cc2F)Oc2cccc(C3CCN(Cc4nc5ccc(C(=O)O)cc5n4C4CCOC4)CC3)c2O1 (stereo not shown) [Example 61, 2-({4-[2-(4-chloro-2-fluorophenyl)-2-methyl-1,3-benzodioxol-4-yl]piperidin-1-yl}methyl)-1-(tetrahydrofuran-3-yl)-1H-benzimidazole-6-carboxylic acid] | 0.01 | 79 | 240 | 85 |  |  |  |  |
| COCCn1c(C2CC23CCN(c2cccc4c2OC(C)(c2ccc(Cl)cc2F)O4)CC3)nc2ccc(C(=O)O)cc21 (single isomer, unassigned) [Example 26, 2-{6-[2-(4-chloro-2-fluorophenyl)-2-methyl-1,3-benzodioxol-4-yl]-6-azaspiro[2.5]oct-1-yl}-1-(2-methoxyethyl)-1H-benzimidazole-6-carboxylic acid] | > 20 |  |  |  |  |  | > 20000 |  |
